The values below come from patent US20210346279A1, “COMPOSITIONS COMPRISING TAPINAROF FOR THE TREATMENT OF PRURITIS” (Sol-Gel Technologies Ltd., priority 2020, published 2021).

This assay deals with C57/b16 mice. Briefly: acetone-ether-water (AEW) induced pruritus in a mouse model, spontaneous scratching recorded for 60 min. In kind it is in vivo. As to the method:
The objective of this study was to examine the efficacy of topical formulations of Tapinarof in the strength of 0.5%, 1% and 2% as a treatment in acetone-ether-water (AEW) induced pruritus in a mouse model.
The model of inducing itching sensation was done by treating C57/b16 mice with AEW as was conducted in other studies in the past.
The mice were shaved 24 h prior to study to expose the skin. For 5 days, twice a day (at least 3-4 hours apart), mice were applied acetone and ether (mixed at 1:1 ratio) on the right cheek for 30 seconds, and immediately afterwards applied on cheek water for 30 seconds.
Day 1-3: AEW was treated twice (at least 3-4 hours apart), AE 30s, Water 30s.
Day 4-5: AEW was treated twice (at least 3-4 hours apart), AE 30s, Water 30s, topical administration of vehicle, tapinarof 0.5%, tapinarof 1%, tapinarof 2% (−20 h before evaluation) and randomization.
Day 5: AEW was treated once, topical administration of vehicle, tapinarof 0.5%, tapinarof 1%, and tapinarof 2% (−2 h before evaluation), positive control dosing (−30 min), video record (evaluation), animal weighing, sacrificing, plasma collection and skin sample collection.
Immediately after AEW application on day 5, the mice were put into acrylic chambers and behavior was recorded for 60 min using a video camera under unmanned conditions to assess spontaneous scratching. Videos were manually scored for time spent spontaneously scratching the affected cheek. Scratching is defined as an episode in which the mouse lifted its paw and scratched continuously for any length of time until the paw returned to the floor. Only scratches of the affected cheek with their hind paws were counted. Other scratching behaviors were disregarded. The number of scratches was summarized for each animal and the average number per group was calculated. In addition, the scratching time (seconds) was also evaluated, and the average of scratching time was calculated. Data are expressed as the mean±S.E.M. statistically significant differences between two groups were evaluated using paired or non-paired Student's t-test as required.

Consider `CC(C)c1c(O)cc(/C=C/c2ccccc2)cc1O` [tapinarof], for which the “effect on scratching compared with the positive control” value (topical formulation 0.5% w/w) is on record as “comparable to the positive control”. Moreover, the “effect over the vehicle (scratching sessions and periods)” value (topical formulation 0.5% w/w, applied -20 h and -2 h before evaluation) is around 40%. Also, the “effect on scratching sessions and periods” value is “did not reduce the scratching sessions and periods” (topical formulation 1% w/w (percent increased twice versus 0.5%)); “did not reduce the scratching sessions and periods” (topical formulation 2% w/w (percent increased four times versus 0.5%)).
